Results: the supplement of paper PMC10307832

Compound: CC1(COc2ccc3c(c2)ncn3-c2ccc3cccc(N4CCC(N)CC4)c3n2)COC1 [Crenolanib] + CC(=O)Nc1cccc(-n2c(=O)n(C3CC3)c(=O)c3c(Nc4ccc(I)cc4F)n(C)c(=O)c(C)c32)c1 [Trametinib] (partner 0.02 µM)
Experiment: relative viability (nuclei count vs DMSO), 5 days (fraction); higher = more cells survive
Details: first compound 0.01 µM
Outline: (§1)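 Relative viability divides the nuclei count in treated wells by that in vehicle wells. Lung cancer cell lines were seeded in 1536-well plates, dosed by pin tool the next day, and fixed and stained after 5 days in one step with final 0.05% Triton X-100, 1% formaldehyde and 1 ug/ml Hoechst. Dosing was a single drug or a fixed anchor-drug dose plus five library-drug doses (not always all listed) in √10 steps, and values are medians of duplicate plates imaged at 4×.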

Going from SK-LU-1 to NCI-H661, the relative viability rises from 0.465 to 0.57.

RERF-LC-KJ was tested, and the relative viability was 0.882.

Same assay, conditions: first compound 0.03162 µM

Going from SK-LU-1 to NCI-H661, the relative viability rises from 0.517 to 0.55.

For RERF-LC-KJ, the relative viability was 0.855.

Same assay, conditions: first compound 0.1 µM

Going from SK-LU-1 to NCI-H661, the relative viability rises from 0.351 to 0.528.

RERF-LC-KJ showed a relative viability of 0.896.

Same assay, conditions: first compound 0.3162 µM

Compared with SK-LU-1, NCI-H661 is higher in relative viability: 0.491 for the first, 0.603 for the second.

Cell Line RERF-LC-KJ has a relative viability of 0.901.

Same assay, conditions: first compound 1 µM

Going from SK-LU-1 to NCI-H661, the relative viability falls from 0.512 to 0.494.

RERF-LC-KJ was tested, and the relative viability was 0.926.

Compound: CC1(COc2ccc3c(c2)ncn3-c2ccc3cccc(N4CCC(N)CC4)c3n2)COC1 [Crenolanib] + CC(C)C[C@H](NC(=O)[C@H](Cc1ccccc1)NC(=O)c1cnccn1)B(O)O [Bortezomib] (partner 0.002 µM)
Experiment: as above
Details: first compound 0.01 µM
Outline: as §1

Going from SK-LU-1 to NCI-H661, the relative viability falls from 1.42 to 0.807.

With RERF-LC-KJ the relative viability was 1.26.

Same assay, conditions: first compound 0.03162 µM

Going from SK-LU-1 to NCI-H661, the relative viability falls from 1.11 to 0.853.

In the case of RERF-LC-KJ, the relative viability is reported as 1.15.

Same assay, conditions: first compound 0.1 µM

First: SK-LU-1
Second: NCI-H661
The relative viability of the first is higher: 0.937 for the first, 0.851 for the second.

RERF-LC-KJ showed a relative viability of 1.11.

Same assay, conditions: first compound 0.3162 µM

Compared with SK-LU-1, NCI-H661 is lower in relative viability: 1.33 for the first, 0.831 for the second.

Cell Line RERF-LC-KJ has a relative viability of 1.1.

Same assay, conditions: first compound 1 µM

Going from SK-LU-1 to NCI-H661, the relative viability falls from 1 to 0.745.

RERF-LC-KJ showed a relative viability of 1.12.

Compound: O=C1NC(=O)[C@@H](c2cn3c4c(cccc24)CCC3)[C@@H]1c1c[nH]c2ccccc12 [Tivantinib] + C[C@@H](Oc1cc(-c2cnn(C3CCNCC3)c2)cnc1N)c1c(Cl)ccc(F)c1Cl [Crizotinib] (partner 1 µM)
Experiment: as above
Details: first compound 0.01 µM
Outline: as §1

Going from SK-LU-1 to NCI-H661, the relative viability falls from 0.95 to 0.914.

Work on RERF-LC-KJ yielded a relative viability of 0.831.

Same assay, conditions: first compound 0.03162 µM

Compared with SK-LU-1, NCI-H661 is lower in relative viability: 1.01 for the first, 1 for the second.

In the case of RERF-LC-KJ, the relative viability is reported as 0.886.

Same assay, conditions: first compound 0.1 µM

Going from SK-LU-1 to NCI-H661, the relative viability rises from 0.872 to 0.962.

For RERF-LC-KJ, the relative viability was 0.852.

Same assay, conditions: first compound 0.3162 µM

First: SK-LU-1
Second: NCI-H661
The relative viability of the first is lower: 0.716 for the first, 0.736 for the second.

RERF-LC-KJ showed a relative viability of 0.831.

Compound: CC1(COc2ccc3c(c2)ncn3-c2ccc3cccc(N4CCC(N)CC4)c3n2)COC1 [Crenolanib] + Nc1ncn([C@H]2C[C@H](O)[C@@H](CO)O2)c(=O)n1 [Decitabine] (partner 2 µM)
Experiment: as above
Details: first compound 0.01 µM
Outline: as §1

First: SK-LU-1
Second: NCI-H661
The relative viability of the first is higher: 0.666 for the first, 0.534 for the second.

RERF-LC-KJ gave a relative viability of 0.672.

Same assay, conditions: first compound 0.03162 µM

Going from SK-LU-1 to NCI-H661, the relative viability falls from 0.703 to 0.514.

RERF-LC-KJ showed a relative viability of 0.699.

Same assay, conditions: first compound 0.1 µM

First: SK-LU-1
Second: NCI-H661
The relative viability of the first is lower: 0.533 for the first, 0.544 for the second.

In the case of RERF-LC-KJ, the relative viability is reported as 0.635.

Same assay, conditions: first compound 0.3162 µM

First: SK-LU-1
Second: NCI-H661
The relative viability of the first is higher: 0.66 for the first, 0.555 for the second.

Cell Line RERF-LC-KJ has a relative viability of 0.697.

Same assay, conditions: first compound 1 µM

Going from SK-LU-1 to NCI-H661, the relative viability falls from 0.653 to 0.541.

RERF-LC-KJ was tested, and the relative viability was 0.717.
